Assay results reported in paper PMC9416745, “The Effect of 1,2,4-Triazole-3-thiol Derivatives Bearing Hydrazone Moiety on Cancer Cell Migration and Growth of Melanoma, Breast, and Pancreatic Cancer Spheroids” (Pharmaceuticals, 2022).
Each block holds one compound with its values, some of them ahead of it.

Columns and labels:
[1] = system: human malignant melanoma cell line IGR39; test: MTT cell viability assay, IGR39; format: cell-based
Method: (§1) The effect of synthesized compounds on cell viability was studied using 3-(4,5-dimethylthiazol-2-yl)-2,5-diphenyltetrazolium bromide (MTT; Sigma-Aldrich Co., St Louis, MO, USA) assay, as described elsewhere. Briefly, IGR39, MDA-MB-231, Panc-1, and HF cells were seeded in 96-well plates (Corning) in triplicate at a volume of 100 μL (IGR39, MDA-MB-231 and Panc-1: 4 × 10^3 cells/well; HF: 5 × 10^3 cells/well). After 24 h, cells were treated with 50 μM of tested compounds. After 72 h, the MTT reagent was added and cells were incubated for 4 h. Then the medium was aspirated, and the formed formazan crystals were dissolved in 100 μL DMSO (Sigma-Aldrich Co., St. Louis, MO, USA). The absorbance was measured at 570 and 630 nm using a multi-detection microplate reader. The compound effect on cell viability was calculated using the formula:(1) Relative cell viability (%)=A−A0/ANC−A0 where
(§2) • A—mean of absorbance of the tested compound, • A0—mean of absorbance of blank (no cells, positive control), and • ANC—mean of absorbance of negative control (only cells, no treatment).
(§3) The compound serial dilutions from 50 µM to 1.56 µM were made in a medium and added to the cells in triplicates. The EC50 value representing the concentration of a compound causing 50% reduction of cancer cell metabolic activity was calculated using the Hill equation.

[2] = system: human pancreatic carcinoma cell line Panc-1; test: MTT cell viability assay, Panc-1; format: cell-based; settings: 72 h, serial dilutions 50-1.56 µM, n = 3, read-out: EC50 against Panc-1
Method: as §1, §2, §3

[3] = system: Human foreskin fibroblasts (HF) CRL-4001; test: MTT cell viability assay, fibroblasts; format: cell-based; settings: 72 h
Method: as §1, §2, §3

[4] = system: human triple-negative breast cancer MDA-MB-231; test: MTT cell viability assay, MDA-MB-231; format: cell-based
Method: as §1, §2, §3

[5] = system: IGR39, MDA-MB-231 and Panc-1 cell migration; test: 'Wound healing' cell migration assay, stated for all tested cell lines; format: cell-based, human; settings: 10 µM, compared to the control
Method: (§4) Briefly, melanoma IGR39, human triple-negative breast cancer MDA-MB-231, and pancreatic carcinoma Panc-1 cells were seeded in 24-well plates at a density of 6 × 10^4 cells/well and incubated for 48 h in previously described cell culture medium at 37°C in a humidified atmosphere containing 5% CO2. Then the scratch was made using a 100 µL pipette tip. Cells were washed once with PBS, and the fresh medium containing 10 µM of compounds 4, 7, 8, 10, 14, 17, and 18 was added. Medium containing 0.1% DMSO was used as a negative control. Cells were incubated at 37 °C in a humidified atmosphere containing 5% CO2.
(§5) The ‘Wounds’ were captured at the intervals of 0 h, 24 h, 48 h and 72 h (only for the Panc-1 cell line) from scratch under the phase contrast microscope at a 4× magnification. The wound area was analysed using the ImageJ program (National Institute of Health, Bethesda, MD, USA).

[6] = system: MDA-MB-231 cell migration; test: 'Wound healing' cell migration assay, MDA-MB-231; format: cell-based, human; settings: 10 µM, both after 24 h and 48 h of incubation
Method: as §4, §5

[7] = system: IGR39, MDA-MB-231 and Panc-1 cell lines; test: MTT cell viability assay, result stated for all tested cancer cell lines together; format: cell-based, human; settings: 72 h
Method: as §1, §2, §3

[8] = system: IGR39, MDA-MB-231 and Panc-1 tumour spheroids; test: 3D cell cultures (spheroids), stated for all three spheroid types; format: cell-based, human; settings: 10 µM, 8 days of incubation
Method: (§6) Cancer cell spheroids were formed using the magnetic 3D Bioprinting method, as described elsewhere. Briefly, melanoma IGR39, triple-negative breast cancer MDA-MB-231 cells, pancreatic cancer Panc-1 cells, and human fibroblasts at 70% confluency in a 6-well plate were incubated with Nanoshuttle (n3D Biosciences, Inc., Houston, TX, USA) for 8 h at 37°C in a humidified atmosphere containing 5% CO2. Then cells were trypsinized, centrifuged, and seeded into an ultra-low attachment 96-well plate in a volume of 100 µL (1.5 × 10^3 cancer cells and 1.5 × 10^3 human fibroblasts/well). The plate was placed on a magnetic drive and incubated for 2 days at 37°C in a humidified atmosphere containing 5% CO2. Then the fresh medium containing 10 µM of the tested compound was added to the wells. Spheroids were captured every two days using the Olympus IX73 inverted microscope (OLYMPUS CORPORATION, Tokyo, Japan). Quantitative analysis of compound anticancer activity in spheroids was performed using ImageJ, version 1.53o (National Institutes of Health, USA) and Microsoft Office Excel 2016 software (Microsoft Corporation, Redmond, WA, USA).
(§7) On the last day of incubation, 10 µL of WST-1 reagent (Sigma-Aldrich Co, St. Louis, MO, USA) was added to each well with spheroids. After 10 h of incubation, 50 µL of liquid from each well were transferred to the new 96-well plate and the absorbance was measured at 460 and 530 nm using a multi-detection microplate reader. Spheroid cell viability was calculated using a formula provided in Section 3.2.2.

melanoma IGR39 spheroids = test: 3D cell cultures (spheroids), IGR39; format: cell-based, human; settings: 10 µM, 8 days of incubation
Method: as §6, §7

melting point: 121 to 122 °C
SMILES: CCOC(=O)CSC1NN=C(CCNc2ccccc2)N1c1ccccc1 (centres unmarked) [Compound 2, Ethyl 2-((4-phenyl-3-(2-(phenylamino)ethyl)-4,5-dihydro-1H-1,2,4-triazol-5-yl)thio)acetate]

melting point: 112 to 113 °C
SMILES: NNC(=O)CSc1nnc(CCNc2ccccc2)n1-c1ccccc1 [Compound 3, 2-((4-Phenyl-5-(2-(phenylamino)ethyl)-4H-1,2,4-triazol-3-yl)thio)acetohydrazide]

melting point: 238 to 239 °C
SMILES: COc1ccc2c(c1)C(=NNC(=O)CSc1nnc(CCNc3ccccc3)n1-c1ccccc1)C(=O)N2 [Compound 5, N′-(5-methoxy-2-oxoindolin-3-ylidene)-2-((4-phenyl-5-(2-(phenylamino)ethyl)-4H-1,2,4-triazol-3-yl)thio)acetohydrazide]

melting point: 274 to 275 °C
SMILES: O=C(CSc1nnc(CCNc2ccccc2)n1-c1ccccc1)NN=C1C(=O)Nc2ccc([N+](=O)[O-])cc21 [Compound 6, N′-(5-nitro-2-oxoindolin-3-ylidene)-2-((4-phenyl-5-(2-(phenylamino)ethyl)-4H-1,2,4-triazol-3-yl)thio)acetohydrazide]

melting point: 266 to 267 °C
SMILES: O=C(CSc1nnc(CCNc2ccccc2)n1-c1ccccc1)NN=C1C(=O)Nc2ccc(F)cc21 [Compound 7, N′-(5-fluoro-2-oxoindolin-3-ylidene)-2-((4-phenyl-5-(2-(phenylamino)ethyl)-4H-1,2,4-triazol-3-yl)thio)acetohydrazide]
activity against the IGR39 cell line (screening) ([1]; 50 µM, 72 h): most active

EC50 [2]: 38.5 ± 1.6 µM
melting point: 258 to 259 °C
SMILES: O=C(CSc1nnc(CCNc2ccccc2)n1-c1ccccc1)NN=C1C(=O)Nc2ccc(OC(F)(F)F)cc21 [Compound 8, N′-(2-oxo-5-(trifluoromethoxy)indolin-3-ylidene)-2-((4-phenyl-5-(2-(phenylamino)ethyl)-4H-1,2,4-triazol-3-yl)thio)acetohydrazide]
activity against the IGR39 cell line (screening) ([1]; 50 µM, 72 h): most active
cytotoxicity against fibroblasts ([3]; compared with the other selected compounds): lower cytotoxicity against fibroblasts

melting point: 189 to 190 °C
SMILES: Cc1ccc(C=NNC(=O)CSc2nnc(CCNc3ccccc3)n2-c2ccccc2)cc1 [Compound 9, N′-(4-methylbenzylidene)-2-((4-phenyl-5-(2-(phenylamino)ethyl)-4H-1,2,4-triazol-3-yl)thio)acetohydrazide]

EC50 ([1]; Homo sapiens, IGR-39, 72 h, serial dilutions 50-1.56 µM, n = 3, read-out: EC50 against IGR39): 22.3 ± 2.5 µM
EC50 ([4]; Homo sapiens, MDA-MB-231, 72 h, serial dilutions 50-1.56 µM, n = 3, read-out: EC50 against MDA-MB-231): 9.7 ± 1.6 µM
EC50 [2]: 26.2 ± 1 µM
melting point: 169 to 170 °C
SMILES: CN(C)c1ccc(C=NNC(=O)CSc2nnc(CCNc3ccccc3)n2-c2ccccc2)cc1 [Compound 10, N′-(4-(dimethylamino)benzylidene)-2-((4-phenyl-5-(2-(phenylamino)ethyl)-4H-1,2,4-triazol-3-yl)thio)acetohydrazide]
selectivity against the melanoma IGR39 cell line (screening) ([1]; 50 µM, 72 h): moderate selectivity
EC50 ([3]; Homo sapiens, Fibroblast, serial dilutions 50-1.56 µM, n = 3, read-out: EC50 against fibroblasts): 61.4 ± 2.8 µM
effect on cell migration [5]: inhibited all cancer cell migration
MDA-MB-231 cell migration [6]: migrated slower

melting point: 209 to 210 °C
SMILES: O=C(CSc1nnc(CCNc2ccccc2)n1-c1ccccc1)NN=Cc1ccncc1 [Compound 11, 2-((4-Phenyl-5-(2-(phenylamino)ethyl)-4H-1,2,4-triazol-3-yl)thio)-N′-(pyridin-4-ylmethylene)acetohydrazide]

melting point: 92 to 93 °C
SMILES: O=C(CSc1nnc(CCNc2ccccc2)n1-c1ccccc1)NN=Cc1cccnc1 [Compound 12, 2-((4-Phenyl-5-(2-(phenylamino)ethyl)-4H-1,2,4-triazol-3-yl)thio)-N′-(pyridin-3-ylmethylene)acetohydrazide]

melting point: 233 to 234 °C
SMILES: O=C(CSc1nnc(CCNc2ccccc2)n1-c1ccccc1)NN=Cc1ccc(C(=O)O)cc1 [Compound 13, 4-((2-(2-((4-Phenyl-5-(2-(phenylamino)ethyl)-4H-1,2,4-triazol-3-yl)thio)acetyl)hydrazono)methyl)benzoic acid]

melting point: 119 to 120 °C
SMILES: O=C(CSc1nnc(CCNc2ccccc2)n1-c1ccccc1)NN=Cc1c[nH]nc1-c1ccccc1 [Compound 15, N′-((3-phenyl-1H-pyrazol-4-yl)methylene)-2-((4-phenyl-5-(2-(phenylamino)ethyl)-4H-1,2,4-triazol-3-yl)thio)acetohydrazide]

melting point: 62 to 63 °C
SMILES: Cn1ccc(C=NNC(=O)CSc2nnc(CCNc3ccccc3)n2-c2ccccc2)n1 [Compound 16, N′-((1-methyl-1H-pyrazol-3-yl)methylene)-2-((4-phenyl-5-(2-(phenylamino)ethyl)-4H-1,2,4-triazol-3-yl)thio)acetohydrazide]

EC50 ([7]; Homo sapiens, range over cancer cell lines, read-out: EC50 values against the tested cancer cell lines (range)): 2 to 17 µM
melting point: 219 to 220 °C
SMILES: O=C(CSc1nnc(CCNc2ccccc2)n1-c1ccccc1)NN=Cc1cc([N+](=O)[O-])ccc1O [Compound 18, N′-(2-hydroxy-5-nitrobenzylidene)-2-((4-phenyl-5-(2-(phenylamino)ethyl)-4H-1,2,4-triazol-3-yl)thio)acetohydrazide]
activity against all tested cancer cell lines (screening) ([7]; 50 µM): most active
activity in 3D cell cultures (spheroids) [8]: most active
melanoma IGR39 spheroid growth (melanoma IGR39 spheroids): mostly inhibited

melting point: 196 to 197 °C
SMILES: CSc1ccc(C=NNC(=O)CSc2nnc(CCNc3ccccc3)n2-c2ccccc2)cc1 [Compound 19, N′-(4-(methylthio)benzylidene)-2-((4-phenyl-5-(2-(phenylamino)ethyl)-4H-1,2,4-triazol-3-yl)thio)acetohydrazide]
activity against the IGR39 cell line (screening) ([1]; 50 µM, 72 h): least active
activity towards the triple-negative breast cancer cell line (screening) ([4]; 50 µM, 72 h): relatively higher activity
